Converted amounts (≈) assume the structure as drawn. “Also recorded” adds a separate entry of the source. One block for each molecule: values may come before it.
Legend:
Male Long Evans rats = experiment: Ethanol operant self-administration in rats (30 min FR3 session, 10% EtOH); assay type: in vivo, rat
Protocol: Separate groups of rats were given the D2 antagonist eticlopride (0.005, 0.007, 0.01 mg/kg), the A2A antagonist DMPX (1, 3, 5, 7, 10 and 20 mg/kg) and the Al antagonist DPCPX (0.125, 0.25, 0.5 mg/kg) by systemic injections.
Male Long Evans rats (Harlan, Indianapolis, Ind.) weighing approximately 250 g at the beginning of the studies, were individually housed with food and water available ad libitum except when stated otherwise. They were maintained on a 12 h light/dark cycle, lights on at 7:00 am. Operant training occurred between 8:30 am and 2:00 pm. The experimental procedures were approved in advance by our Institutional Animal Care and Use Committee.
(§1) EtOH dilution (10% v/v) for self-administration was made up using 95% ethyl alcohol and tap water. Sucrose (Saccharose, Fisher Scientific, Fair Lawn, N.J., USA) solution (10% w/v) was made up with tap water. All the compounds tested were obtained from Sigma Chemical Co. (St. Louis, Mo.). The A2A antagonist DMPX (3,7-Dimethyl-1-propargylxanthine) was dissolved in warm saline. The A1 antagonist DPCPX (8-Cyclopentyl-1,3-dipropylxanthine) was dissolved in 20:80 v/v mixture of Alkamuls EL-620 (Rhodia Inc., Cranbury, N.J., USA) and phosphate buffered saline. The D2 antagonist, eticlopride, was dissolved in saline. Drugs were administered in a 1 ml/kg volume except for the group tested with 5, 7 and 20 mg/kg DMPX, in which the injection volume was 2 ml/kg as the highest DMPX soluble concentration achieved was 10 mg/ml. Drugs were prepared fresh every treatment day.
EtOH operant self-administration was carried out in standard operant chambers (Med Associates, Georgia, Vt.) housed in sound-attenuated cubicles. Each chamber (33×30.5×33 cm) contained two retractable levers against the right wall, 7 cm from the floor and 1 cm from the right or left edge of the right wall, respectively. One recessed dish positioned at 2.5 cm above floor level and 6 cm from the levers towards the center of the chamber was the reinforcer receptacle. Fluid (0.1 ml) was delivered from syringe pumps upon activation of 1 of the 2 retractable response levers. A 3 sec tone was activated upon lever pressing. […] The beginning of a training session was signaled by the onset of the house light located in the center of the wall facing the levers, at 27.2 cm above the floor. A computer controlled stimulus and fluid delivery and recorded operant responses.
Before the beginning of EtOH operant self-administration, rats were exposed to a 10% EtOH (1OE) solution as the only liquid source in their home cages for 4 days. For the next 14 days, animals were allowed free choice between 10E in tap water or tap water from graded glass tubes. At the end of this 14-day period, operant self-administration was initiated according to the sucrose fading technique (Samson, 1986) with minor modifications. Rats were restricted to 30 minutes of water per day for 2 consecutive days. On the night of the second day of water restriction, rats were placed in the operant chambers for a 12-15 hrs overnight session on an FR1 schedule (1 reinforcement of 0.1 ml per lever press) with 10% sucrose (10S) as reinforcer and both levers active. The next day, rats began the operant self-administration training. Animals were kept on water restriction for the next 4-5 days during which they received one 45 min session per day on an FR1 schedule with 10S as reinforcer and one active lever. They were then given free water in their home cages for the remainder of the experiment and were trained for 2-3 more of the above described sessions. The next day, sessions were shortened to 30 minutes and the ratio of responding was increased to FR3. EtOH was added to the sweet solution (10S10E) and rats received 3-4 sessions of this solution, followed by at least 20 sessions with 10E only. A minimum average of 0.3 g/kg EtOH consumption in 8 sessions prior to the beginning of any drug treatment was required. […]

[1] = Highest soluble concentration of DMPX in the injection vehicle; assay type: physicochemical; conditions: saline or isotonic; dissolved in warm saline; read-out: highest DMPX soluble concentration achieved
Protocol: as §1

[2] = DMPX 1 mg/kg ip, vs saline, p<0.03
[3] = DMPX 10 mg/kg ip, vs saline, p<0.02
[4] = DMPX 20 mg/kg ip, vs saline, p<0.05
[5] = DPCPX 0.125, 0.25, or 0.5 mg/kg ip, ANOVA NS

solubility [1]: 10000 µg/mL (≈ 45.8 mM)
Structure (SMILES): C#CCn1c(=O)c2c(ncn2C)n(C)c1=O [DMPX, 3,7-Dimethyl-1-propargylxanthine]
number of lever presses (Male Long Evans rats; DMPX 1 mg/kg ip, vs saline, p<0.02): significantly increased | g/kg of EtOH intake (Male Long Evans rats; [2]): significantly increased | number of EtOH reinforcements (Male Long Evans rats; [2]): significantly increased | any of the measures (lever presses, EtOH reinforcements, g/kg EtOH) (Male Long Evans rats; DMPX 3 mg/kg ip, vs saline): did not significantly affect | any of the measures (lever presses, EtOH reinforcements, g/kg EtOH) (Male Long Evans rats; DMPX 5 mg/kg ip, vs saline): did not significantly affect | any of the measures (lever presses, EtOH reinforcements, g/kg EtOH) (Male Long Evans rats; DMPX 7 mg/kg ip, vs saline): did not significantly affect | g/kg of EtOH consumption (Male Long Evans rats; [3]): significantly decreased | number of lever presses (Male Long Evans rats; [3]): significantly decreased | number of EtOH reinforcements (Male Long Evans rats; DMPX 10 mg/kg ip, vs saline, p<0.03): significantly decreased | g/kg EtOH intake (Male Long Evans rats; [4]): decreased | number EtOH reinforcements (Male Long Evans rats; [4]): significant effect | EtOH self-administration, dose-effect function (Male Long Evans rats; DMPX 1-20 mg/kg ip): bimodal effect

Structure (SMILES): CCCn1c(=O)c2[nH]c(C3CCCC3)nc2n(CCC)c1=O [DPCPX, 8-Cyclopentyl-1,3-dipropylxanthine]
g/kg of EtOH consumption (Male Long Evans rats; [5]): no effect | number of EtOH reinforcements (Male Long Evans rats; [5]): no effect | number of lever presses (Male Long Evans rats; [5]): no effect | EtOH self-administration, effect across doses (Male Long Evans rats; DPCPX 0.125-0.5 mg/kg ip): without effect; also recorded: did not affect

Structure (SMILES): CCc1cc(Cl)c(OC)c(C(=O)NC[C@@H]2CCCN2CC)c1O [eticlopride]
any of the analyzed measurements (lever presses, reinforcements, g/kg EtOH) (Male Long Evans rats; eticlopride 0.005 mg/kg sc, vs saline): did not significantly affect | number of lever presses (Male Long Evans rats; eticlopride 0.007 mg/kg sc, vs saline, decrease, p<0.005): significant effects | g/kg of EtOH consumption (Male Long Evans rats; eticlopride 0.007 mg/kg sc, vs saline, decrease, p<0.01): significant effects | number of reinforcements (Male Long Evans rats; eticlopride 0.007 mg/kg sc, vs saline, decrease, p<0.02): significant effects | number of lever presses (Male Long Evans rats; eticlopride 0.01 mg/kg sc, vs saline, decrease, p<0.0001): significant effects | g/kg of EtOH consumption (Male Long Evans rats; eticlopride 0.01 mg/kg sc, vs saline, decrease, p<0.004): significant effects | number of reinforcements (Male Long Evans rats; eticlopride 0.01 mg/kg sc, vs saline, decrease, p<0.007): significant effects | EtOH self-administration, effect across doses (Male Long Evans rats; eticlopride 0.005-0.01 mg/kg sc): dose-dependently decreased | EtOH self-administration, effect across doses (Male Long Evans rats; eticlopride 0.005-0.01 mg/kg sc, listed as Eticlopride): dose-dependently reduced

— patent publication US20060128708A1, “Antagonizing an adenosine A2A receptor to ameliorate one or more components of addictive behavior” (priority 2004, published 2006)
